According to ChEMBL document CHEMBL1909046, “DrugMatrix in vitro pharmacology data”:

Legend:
[1] = DRUGMATRIX: GABAA, Muscimol, Central radioligand binding (ligand: [3H] Muscimol); format: cell membranes, Rattus norvegicus, Wistar, Brain, Membrane; settings: Not Active = under 50% inhibition at 10 µM
[2] = DRUGMATRIX: Phorbol Ester radioligand binding (ligand: [3H] PDBu); format: cell membranes, Mus musculus, ICR, Brain, Membrane; settings: Not Active = under 50% inhibition at 10 µM
[3] = biological target: T1, Muscarinic acetylcholine receptor M2 (Homo sapiens, UniProt P08172); format: cell membranes, CHO-K1, Membrane; also: in other assays of this panel Not Active means under 50% inhibition at 10 µM
T1 sequence (P08172 whole entry): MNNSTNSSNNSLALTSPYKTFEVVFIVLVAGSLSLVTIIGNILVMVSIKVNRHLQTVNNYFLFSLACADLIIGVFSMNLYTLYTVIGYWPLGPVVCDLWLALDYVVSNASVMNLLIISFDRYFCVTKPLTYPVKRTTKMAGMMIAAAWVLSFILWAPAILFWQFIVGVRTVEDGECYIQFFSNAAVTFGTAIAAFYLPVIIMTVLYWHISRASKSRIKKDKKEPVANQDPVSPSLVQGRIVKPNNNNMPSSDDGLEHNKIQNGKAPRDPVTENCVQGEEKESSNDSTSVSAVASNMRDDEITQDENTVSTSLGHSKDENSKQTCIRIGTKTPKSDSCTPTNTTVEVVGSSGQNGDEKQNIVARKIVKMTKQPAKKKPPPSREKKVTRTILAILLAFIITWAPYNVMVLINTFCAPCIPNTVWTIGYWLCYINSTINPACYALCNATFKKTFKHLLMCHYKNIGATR

[4] = DRUGMATRIX: GABAA, Flunitrazepam, Central radioligand binding (ligand: [3H] Flunitrazepam); format: cell membranes, Rattus norvegicus, Wistar, Brain, Membrane; settings: Not Active = under 50% inhibition at 10 µM
[5] = DRUGMATRIX: Leukotriene, BLT (LTB4) radioligand binding (ligand: [3H]LTB4); format: cell membranes, Membrane; settings: u-937; Not Active = under 50% inhibition at 10 µM
Calcitonin receptor = biological target: T2, Calcitonin receptor (Homo sapiens, UniProt P30988); format: cell membranes, Membrane; settings: t47d; also: in other assays of this panel Not Active means under 50% inhibition at 10 µM
T2 sequence (P30988 whole entry): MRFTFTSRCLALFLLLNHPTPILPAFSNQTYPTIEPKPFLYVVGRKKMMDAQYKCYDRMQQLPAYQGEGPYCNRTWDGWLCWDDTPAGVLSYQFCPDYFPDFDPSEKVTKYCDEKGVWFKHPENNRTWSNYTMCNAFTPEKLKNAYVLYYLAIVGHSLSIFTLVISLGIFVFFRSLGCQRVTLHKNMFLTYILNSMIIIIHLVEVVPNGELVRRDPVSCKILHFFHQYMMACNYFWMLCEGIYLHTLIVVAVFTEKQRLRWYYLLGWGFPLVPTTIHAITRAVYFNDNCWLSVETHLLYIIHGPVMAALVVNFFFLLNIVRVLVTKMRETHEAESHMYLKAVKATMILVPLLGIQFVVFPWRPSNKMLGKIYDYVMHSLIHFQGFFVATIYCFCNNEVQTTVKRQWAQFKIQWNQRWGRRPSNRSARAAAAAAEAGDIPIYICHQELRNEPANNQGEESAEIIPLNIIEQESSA

[6] = biological target: T3, Cholecystokinin receptor type A (Homo sapiens, UniProt P32238); format: cell membranes, Membrane; settings: 1321-n1; also: in other assays of this panel Not Active means under 50% inhibition at 10 µM
T3 sequence (P32238 whole entry): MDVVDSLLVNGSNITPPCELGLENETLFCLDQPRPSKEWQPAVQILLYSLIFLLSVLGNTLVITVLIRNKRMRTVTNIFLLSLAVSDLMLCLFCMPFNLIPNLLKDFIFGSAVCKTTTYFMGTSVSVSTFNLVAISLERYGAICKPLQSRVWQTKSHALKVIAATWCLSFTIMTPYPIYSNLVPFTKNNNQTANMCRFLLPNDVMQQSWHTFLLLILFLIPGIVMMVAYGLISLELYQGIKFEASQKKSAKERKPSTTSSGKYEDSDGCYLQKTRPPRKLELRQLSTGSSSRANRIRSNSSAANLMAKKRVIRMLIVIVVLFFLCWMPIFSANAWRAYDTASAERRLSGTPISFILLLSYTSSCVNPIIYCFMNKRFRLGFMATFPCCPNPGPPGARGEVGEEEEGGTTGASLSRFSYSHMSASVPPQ

[7] = biological target: Tyrosine-protein kinase Lck (Homo sapiens, UniProt P06239); experiment: DRUGMATRIX: Protein Tyrosine Kinase, LCK enzyme inhibition (substrate: Poly(Glu:Tyr)); format: cell-based, Insect cells; settings: insect cells; Not Active = under 50% inhibition at 10 µM
Sequence of Tyrosine-protein kinase Lck (P06239 whole entry): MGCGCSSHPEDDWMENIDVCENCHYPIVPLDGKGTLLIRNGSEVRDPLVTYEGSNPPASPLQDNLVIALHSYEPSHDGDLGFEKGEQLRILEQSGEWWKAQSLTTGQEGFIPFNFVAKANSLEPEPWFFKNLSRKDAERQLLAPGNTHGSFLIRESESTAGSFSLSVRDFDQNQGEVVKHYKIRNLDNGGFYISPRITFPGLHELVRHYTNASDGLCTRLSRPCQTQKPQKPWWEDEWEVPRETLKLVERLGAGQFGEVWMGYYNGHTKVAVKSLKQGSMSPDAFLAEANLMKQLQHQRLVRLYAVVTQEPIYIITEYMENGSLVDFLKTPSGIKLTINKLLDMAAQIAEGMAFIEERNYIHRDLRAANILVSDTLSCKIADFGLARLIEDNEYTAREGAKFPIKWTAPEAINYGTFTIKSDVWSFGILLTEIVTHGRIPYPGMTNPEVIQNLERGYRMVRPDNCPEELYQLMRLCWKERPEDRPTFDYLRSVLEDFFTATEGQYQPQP

B2 bradykinin receptor = biological target: T4, B2 bradykinin receptor (Homo sapiens, UniProt P30411); format: cell membranes, Membrane; settings: chem-1; also: in other assays of this panel Not Active means under 50% inhibition at 10 µM
T4 sequence (P30411 whole entry): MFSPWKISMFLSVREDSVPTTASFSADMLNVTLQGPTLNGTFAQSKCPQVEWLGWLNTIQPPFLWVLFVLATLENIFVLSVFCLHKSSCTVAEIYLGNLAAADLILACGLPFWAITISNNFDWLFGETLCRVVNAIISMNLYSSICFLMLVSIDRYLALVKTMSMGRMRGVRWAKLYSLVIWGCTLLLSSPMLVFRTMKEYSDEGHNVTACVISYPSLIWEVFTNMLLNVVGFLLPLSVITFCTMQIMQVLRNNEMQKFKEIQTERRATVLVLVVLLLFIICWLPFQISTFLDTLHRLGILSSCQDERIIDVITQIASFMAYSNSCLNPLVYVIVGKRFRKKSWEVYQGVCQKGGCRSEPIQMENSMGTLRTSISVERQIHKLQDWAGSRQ

[8] = DRUGMATRIX: Glutamate, NMDA, Phencyclidine radioligand binding (ligand: [3H] TCP); format: cell membranes, Rattus norvegicus, Wistar, Cerebral cortex, Membrane; settings: Not Active = under 50% inhibition at 10 µM
[9] = DRUGMATRIX: Calcium Channel Type L, Dihydropyridine radioligand binding (ligand: [3H] Nitrendipine); format: cell membranes, Rattus norvegicus, Wistar, Cerebral cortex, Membrane; settings: Not Active = under 50% inhibition at 10 µM
[10] = biological target: Kappa-type opioid receptor (Homo sapiens, UniProt P41145); experiment: DRUGMATRIX: Opiate kappa (OP2, KOP) radioligand binding (ligand: [3H] Diprenorphine); format: cell membranes, HEK293, Membrane; settings: Not Active = under 50% inhibition at 10 µM
Sequence of Kappa-type opioid receptor (P41145 whole entry): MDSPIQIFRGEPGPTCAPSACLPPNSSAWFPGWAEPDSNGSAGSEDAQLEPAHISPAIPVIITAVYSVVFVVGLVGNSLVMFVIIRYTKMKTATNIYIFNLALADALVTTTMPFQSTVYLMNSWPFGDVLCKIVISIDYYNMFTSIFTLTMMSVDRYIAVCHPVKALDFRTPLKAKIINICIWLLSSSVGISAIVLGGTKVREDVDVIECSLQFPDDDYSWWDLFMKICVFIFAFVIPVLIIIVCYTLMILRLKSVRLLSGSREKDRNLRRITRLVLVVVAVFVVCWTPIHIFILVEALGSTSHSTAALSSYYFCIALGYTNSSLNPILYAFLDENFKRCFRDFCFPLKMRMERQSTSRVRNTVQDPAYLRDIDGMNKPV

[11] = biological target: C-C chemokine receptor type 2 (Homo sapiens, UniProt P41597); format: cell membranes, CHO-K1, Membrane; settings: cho-k1; also: in other assays of this panel Not Active means under 50% inhibition at 10 µM
Sequence of C-C chemokine receptor type 2 (P41597 whole entry): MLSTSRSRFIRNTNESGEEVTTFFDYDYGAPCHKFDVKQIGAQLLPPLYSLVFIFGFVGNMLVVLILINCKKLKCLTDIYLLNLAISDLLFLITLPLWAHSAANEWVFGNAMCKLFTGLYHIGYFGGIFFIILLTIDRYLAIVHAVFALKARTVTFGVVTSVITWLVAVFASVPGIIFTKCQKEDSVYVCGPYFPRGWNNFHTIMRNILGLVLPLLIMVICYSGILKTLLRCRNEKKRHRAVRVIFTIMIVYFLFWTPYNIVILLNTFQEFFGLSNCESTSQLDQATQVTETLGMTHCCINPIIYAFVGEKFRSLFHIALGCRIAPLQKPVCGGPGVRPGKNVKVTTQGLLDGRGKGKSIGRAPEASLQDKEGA

[12] = DRUGMATRIX: Sigma2 radioligand binding (ligand: [3H] Ifenprodil); format: cell membranes, Rattus norvegicus, Wistar, Brain, Membrane; settings: Not Active = under 50% inhibition at 10 µM
[13] = biological target: Beta-1 adrenergic receptor (Homo sapiens, UniProt P08588); experiment: DRUGMATRIX: Adrenergic beta1 radioligand binding (ligand: [125I] Cyanopindolol); format: cell membranes, CHO-K1, Membrane; settings: Not Active = under 50% inhibition at 10 µM
Sequence of Beta-1 adrenergic receptor (P08588 whole entry): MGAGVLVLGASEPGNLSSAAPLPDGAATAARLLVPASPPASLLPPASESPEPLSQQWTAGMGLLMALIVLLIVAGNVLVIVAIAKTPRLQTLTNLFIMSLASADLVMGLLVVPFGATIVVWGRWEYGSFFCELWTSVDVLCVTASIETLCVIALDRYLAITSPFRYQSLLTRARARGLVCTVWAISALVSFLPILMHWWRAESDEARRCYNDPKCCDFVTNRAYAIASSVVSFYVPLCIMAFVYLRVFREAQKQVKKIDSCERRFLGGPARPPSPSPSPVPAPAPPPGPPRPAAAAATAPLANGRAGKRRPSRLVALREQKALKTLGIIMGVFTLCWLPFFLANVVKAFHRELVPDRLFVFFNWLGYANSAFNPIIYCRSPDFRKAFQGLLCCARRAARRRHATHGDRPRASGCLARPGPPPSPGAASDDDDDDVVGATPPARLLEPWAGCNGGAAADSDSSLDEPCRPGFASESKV

[14] = biological target: Beta-2 adrenergic receptor (Homo sapiens, UniProt P07550); experiment: DRUGMATRIX: Adrenergic beta2 radioligand binding (ligand: [3H] CGP-12177); format: cell membranes, Membrane; settings: cho; Not Active = under 50% inhibition at 10 µM

Row | Compound | IC50 [1] | Ki [1] | IC50 [2] | Ki [2] | IC50 ([3]; cho-k1) | IC50 [4] | Ki [4] | IC50 [5] | Ki [5] | IC50 (Calcitonin receptor) | IC50 [6] | IC50 [7] | IC50 (B2 bradykinin receptor) | IC50 [8] | Ki [8] | IC50 [9] | Ki [9] | IC50 ([10]; hek293) | IC50 [11] | IC50 ([13]; cho-k1) | also measured
1 | CC(C)(C)NCC(O)c1ccc(O)c(CO)c1 (stereo unspecified) [ALBUTEROL] | Not Active | Not Active | Not Active | Not Active | Not Active | Not Active | Not Active | Not Active | Not Active | Not Active | Not Active | Not Active | Not Active | Not Active | Not Active | Not Active | Not Active | Not Active | Not Active | – | IC50 [12]: Not Active; Ki [12]: Not Active
2 | CN(C)CCCN1c2ccccc2CCc2ccc(Cl)cc21 [CLOMIPRAMINE] | – | – | – | – | – | – | – | – | – | Not Active | Not Active | Not Active | Not Active | – | – | – | – | Not Active | Not Active | Not Active | IC50 ([3]; read-out: IC50): 0.241 µM; Ki ([3]; read-out: Ki): 0.086 µM; IC50 [14]: Not Active
3 | Clc1ccccc1C(c1ccccc1)(c1ccccc1)n1ccnc1 [CLOTRIMAZOLE] | – | – | – | – | – | – | – | – | – | Not Active | Not Active | Not Active | Not Active | – | – | – | – | – | Not Active | – | IC50 ([3]; read-out: IC50): 14.5 µM; Ki ([3]; read-out: Ki): 5.17 µM; IC50 ([13]; read-out: IC50): 11.3 µM; Ki ([13]; read-out: Ki): 6.51 µM; Ki [10]: 2.52 µM; IC50 ([10]; read-out: IC50): 6.3 µM
4 | O=C(CCCN1CCC(O)(c2ccc(Cl)cc2)CC1)c1ccc(F)cc1 [HALOPERIDOL] | – | – | – | – | Not Active | – | – | – | – | Not Active | Not Active | Not Active | Not Active | – | – | – | – | Not Active | Not Active | Not Active | IC50 [14]: Not Active
5 | CC(CCc1ccccc1)NCC(O)c1ccc(O)c(C(N)=O)c1 (stereo unspecified) [LABETALOL] | Not Active | Not Active | Not Active | Not Active | Not Active | Not Active | Not Active | Not Active | Not Active | Not Active | Not Active | Not Active | Not Active | Not Active | Not Active | Not Active | Not Active | Not Active | Not Active | – | IC50 ([12]; read-out: IC50): 2.82 µM; Ki ([12]; read-out: Ki): 1.73 µM
6 | CN1CCN2c3ccccc3Cc3ccccc3C2C1 (stereo unspecified) [MIANSERIN] | – | – | – | – | – | – | – | – | – | Not Active | Not Active | Not Active | Not Active | – | – | – | – | Not Active | Not Active | Not Active | IC50 [14]: Not Active
7 | O=C1c2c(O)ccc(O)c2C(=O)c2c(NCCNCCO)ccc(NCCNCCO)c21 [MITOXANTRONE] | Not Active | Not Active | Not Active | Not Active | – | Not Active | Not Active | Not Active | Not Active | Not Active | Not Active | Not Active | Not Active | Not Active | Not Active | Not Active | Not Active | Not Active | Not Active | Not Active | IC50 [14]: Not Active; IC50 [12]: Not Active; Ki [12]: Not Active
8 | CC(C)(O)c1ccccc1CC[C@@H](SCC1(CC(=O)O)CC1)c1cccc(/C=C/c2ccc3ccc(Cl)cc3n2)c1 [MONTELUKAST] | – | – | – | – | Not Active | – | – | – | – | Not Active | Not Active | Not Active | Not Active | – | – | – | – | Not Active | Not Active | Not Active | –
9 | CC(C)(C)NCC(O)c1cc(O)cc(O)c1 (stereo unspecified) [TERBUTALINE] | Not Active | Not Active | Not Active | Not Active | Not Active | Not Active | Not Active | Not Active | Not Active | Not Active | Not Active | Not Active | Not Active | Not Active | Not Active | Not Active | Not Active | Not Active | Not Active | – | IC50 [12]: Not Active; Ki [12]: Not Active
10 | IVERMECTIN | Not Active | Not Active | Not Active | Not Active | Not Active | Not Active | Not Active | Not Active | Not Active | Not Active | Not Active | Not Active | Not Active | Not Active | Not Active | Not Active | Not Active | – | Not Active | Not Active | Ki ([3]; cho-k1): Not Active; Ki ([13]; cho-k1): Not Active; Ki (Calcitonin receptor): Not Active; Ki [6]: Not Active; Ki [7]: Not Active; Ki (B2 bradykinin receptor): Not Active; IC50 [14]: Not Active; Ki [14]: Not Active; Ki [11]: Not Active; IC50 [12]: Not Active; Ki [12]: Not Active
